Values of other authors, collected in patent publication US20100285114A1, “PHARMACEUTICAL COMPOSITIONS OF RHEIN OR DIACEREIN” (priority 2007, published 2010).
Structures can show the parent of a compound that is named as a salt.

Key:
[1] = in vivo

| solubility in water (disclosed in EP 243,968) | soft stool effect expected due to inherent pharmacokinetic property (enterohepatic circulation) [1] | solubility (in water, alcohols, acetone, dichloromethane and chloroform) | Structure (SMILES) |
| --- | --- | --- | --- |
| water-soluble | – | – | CC(=O)Oc1cccc2c1C(=O)c1c(OC(C)=O)cc(C(=O)O)cc1C2=O [potassium salt of diacerein] |
| – | 30-40% | practically insoluble | CC(=O)Oc1cccc2c1C(=O)c1c(OC(C)=O)cc(C(=O)O)cc1C2=O [diacerein, 4,5-bis (acetyloxy) 9,10-dihydro-4,5-dihydroxy-9,10-dioxo-2-anthracenecarboxylic acid] |
